This test addresses T1, Casp6 (Homo sapiens, UniProt P55212, INS179NQTEKLDTNITEVD).
T1 construct: generating mainly large subunit with a linker (LS-L), small subunit (SS), and a minor amount of large subunit (LS); His (C); made in house; host or cells: E. coli BL21(DE3)pLysS
T1 sequence (P55212 24-193 limits assumed): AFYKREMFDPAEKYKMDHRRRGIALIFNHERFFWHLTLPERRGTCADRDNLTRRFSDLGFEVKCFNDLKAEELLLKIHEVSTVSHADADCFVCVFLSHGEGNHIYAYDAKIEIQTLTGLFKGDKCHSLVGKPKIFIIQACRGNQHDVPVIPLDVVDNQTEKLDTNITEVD
T1 sequence (P55212 194-293 limits assumed): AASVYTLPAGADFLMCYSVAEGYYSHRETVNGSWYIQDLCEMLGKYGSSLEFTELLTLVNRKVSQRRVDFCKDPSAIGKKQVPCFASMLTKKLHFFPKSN
Nature of the test: Reversibility of Casp6 inhibition (pre-incubation at 10-fold IC50, rapid 100-fold dilution). Particulars: recovery of activity after 60 min pre-incubation and 100-fold dilution. The format is biochemical. The method, then: Supplementary Figure S5. Mechanism of Casp6 inhibition with C13 and S10G. (a) Inhibition of Casp6 with C13 (left panel) and S10G (right panel) is reversible. The recovery of Casp6 activity after 60 min pre-incubation with C13 and S10G at a concentration of inhibitor equal to 10-fold the IC50 value followed by a rapid 100-fold […]
(1 picture or pasted object on this page, not shown here) […]
dilution into Casp6 activity assay solution. The control samples DMSO and Q-VD-OPh were pre-incubated and diluted in the absence of inhibitor, and in the presence of an irreversible inhibitor Q-VD-OPh, respectively. Data points represent mean ± standard error of the mean (SEM) from three independent experiments. (b) Coomassie stain of SDS-PAGE of purified recombinant WT -, L200A-, and K284A-Casp6 (left panel) expressed from a full -length Casp6 encoding construct (Fig. 1c ), and copurified LS and SS of WT -, L200A-, and K284A-LS-SS-Casp6 (right panel). FL (full-length Casp6), ΔCasp6 (Casp6 without a prodomain), LS-L (large subunit with linker), LS (large subunit), and SS (small subunit) depict different bands of Casp6. (c) Michaelis-Menten kinetic plots (top panel) and calculated KM and Vmax values (bottom panel) for Casp6-WT-LS-SS (left panel), Casp6-L200A-LS-SS (middle panel), and Casp6-K284A-LS-SS (right panel) enzymatic activity in presence of 1% DMSO (0 µM C13) or increasing doses of C13. […]

1 compound from PMC6445123 (Scientific Reports, 2019) can be followed below.

On to `COC(=O)c1cc(CNC(=O)C2Cc3ccccc3O2)cc(NC(=O)c2ccco2)c1` (stereo not shown) [Compound C13], for which the “reversibility of Casp6 inhibition” value is on record as “reversible”.
